≈ marks a conversion by molar mass, not a printed value.
What was measured:
Experiment in all cases: ≥ marks a high value that may be exact or a test limit, other limits are often not marked, values filed in µg/mL are converted to µM
Bacillus megaterium Bm11 = test system: Bacillus megaterium Bm11
[1] = test system: Candida albicans ATCC 10231
Candida tropicalis = test system: Candida tropicalis
Escherichia coli D21 = test system: Escherichia coli D21
Mammaliicoccus lentus = test system: Mammaliicoccus lentus
Micrococcus luteus = test system: Micrococcus luteus
[2] = test system: Phytophthora nicotianae PG344
[3] = test system: Pseudomonas syringae pv. tabaci
[4] = test system: Yersinia pseudotuberculosis YPIII
[5] = test system: Acinetobacter baumannii ATCC 19606
[6] = test system: Bacillus cereus ATCC 11778
[7] = test system: Bacillus megaterium ATCC 10778
[8] = test system: Bacillus subtilis CCT 2471
Bacillus thuringiensis = test system: Bacillus thuringiensis
[9] = test system: Candida albicans ATCC 18804
Candida albicans MDM8 = test system: Candida albicans MDM8
[10] = test system: Candida tropicalis IOC 4560
Escherichia coli AIG 221 = test system: Escherichia coli AIG 221
Escherichia coli AIG 222 = test system: Escherichia coli AIG 222
[11] = test system: Escherichia coli ATCC 10536
[12] = test system: Escherichia coli ATCC 11775
Escherichia coli BL21 = test system: Escherichia coli BL21
[13] = test system: Escherichia coli CCT 1371
[14] = test system: Escherichia coli KCTC 1682
Escherichia coli SBS 363 = test system: Escherichia coli SBS 363
[15] = test system: Klebsiella aerogenes ATCC 13048
[16] = test system: Klebsiella oxytoca CIP 79.32
[17] = test system: Klebsiella pneumoniae ATCC 13883
Micrococcus luteus A270 = test system: Micrococcus luteus A270
Proteus mirabilis = test system: Proteus mirabilis
[18] = test system: Pseudomonas aeruginosa ATCC 15442
[19] = test system: Pseudomonas aeruginosa ATCC 27853
[20] = test system: Pseudomonas aeruginosa ATCC BAA-427
[21] = test system: Pseudomonas aeruginosa CCARM 2095
[22] = test system: Pseudomonas aeruginosa KCTC 1637
[23] = test system: Pseudomonas aeruginosa NCIB 10421
[24] = test system: Pseudomonas aeruginosa PAO1
[25] = test system: Salmonella enterica subsp. enterica serovar Typhimurium ATCC 14028
[26] = test system: Salmonella typhimurium KCTC 1926
[27] = test system: Serratia marcescens ATCC 4112
[28] = test system: Staphylococcus aureus ATCC 12600
[29] = test system: Staphylococcus aureus ATCC 25293
[30] = test system: Staphylococcus aureus ATCC 25923
[31] = test system: Staphylococcus aureus ATCC 6538
[32] = test system: Staphylococcus aureus CCARM 3001
[33] = test system: Staphylococcus aureus CCARM 3543
[34] = test system: Staphylococcus aureus KCTC 1621
[35] = test system: Staphylococcus epidermidis ATCC 12228
[36] = test system: Staphylococcus epidermidis KCTC 1917
[37] = test system: Staphylococcus saprophyticus

With `CC(C)C[C@H](NC(=O)[C@H](C)NC(=O)CN)C(=O)N[C@@H](CCCN=C(N)N)C(=O)NCC(=O)N[C@H]1CSSC[C@@H](C(=O)N[C@@H](CCCCN)C(N)=O)NC(=O)[C@@H]2CCCN2C(=O)[C@H](CCCCN)NC(=O)[C@@H]2CCCN2C(=O)[C@@H]2CCCN2C(=O)[C@H](Cc2ccc(O)cc2)NC(=O)[C@H](CO)NC(=O)[C@H](CCCCN)NC(=O)[C@H]([C@@H](C)O)NC(=O)[C@H](Cc2c[nH]c3ccccc23)NC1=O` [GALRGCWTKSYPPKPCK] the MIC (Bacillus megaterium Bm11) was 3 µM (≈ 5.67 µg/mL), the MIC [1] was 22 µM (≈ 41.6 µg/mL) and the MIC (Candida tropicalis) was 14 µM (≈ 26.5 µg/mL). It also gave an MIC (Escherichia coli D21) of 30 µM (≈ 56.7 µg/mL), an MIC (Mammaliicoccus lentus) of 10 µM (≈ 18.9 µg/mL) and an MIC (Micrococcus luteus) of 8 µM (≈ 15.1 µg/mL). For the same compound, the MIC [2] was 16 µM (≈ 30.2 µg/mL), the MIC [3] was 16 µM (≈ 30.2 µg/mL) and the MIC [4] was 5 µM (≈ 9.45 µg/mL).

In the case of `CC[C@H](C)[C@H](N)C(=O)N[C@@H](CC(C)C)C(=O)NCC(=O)N[C@@H](CCCCN)C(=O)N[C@H](C(=O)N[C@@H](Cc1c[nH]c2ccccc12)C(=O)N[C@@H](CCC(=O)O)C(=O)NCC(=O)N[C@H](C(=O)N[C@@H](CCCCN)C(=O)N[C@@H](CO)C(=O)N[C@@H](CC(C)C)C(=O)N[C@@H](Cc1ccccc1)C(N)=O)[C@@H](C)CC)[C@@H](C)CC` [ILGKIWEGIKSLF], the MIC [5] is reported as 8 µM (≈ 12 µg/mL), the MIC [6] is reported as at least 66.5 µM and the MIC [7] is reported as 0.78 µM (≈ 1.17 µg/mL). The MIC [8] was 6.65 µM (≈ 9.99 µg/mL), the MIC (Bacillus thuringiensis) was 16.6 µM (≈ 25 µg/mL) and the MIC [9] was 12.5 µM (≈ 18.8 µg/mL). The MIC (Candida albicans MDM8) was 3.13 µM (≈ 4.7 µg/mL), the MIC [10] was 1.56 µM (≈ 2.34 µg/mL) and the MIC (Escherichia coli AIG 221) was at least 32 µM. For the same compound, the MIC (Escherichia coli AIG 222) was 16 µM (≈ 24 µg/mL), the MIC [11] was 3 µM (≈ 4.51 µg/mL) and the MIC [12] was at least 32 µM. It also gave an MIC (Escherichia coli BL21) of 4 µM (≈ 6.01 µg/mL), an MIC [13] of 3.32 µM (≈ 5 µg/mL) and an MIC [14] of 4 µM (≈ 6.01 µg/mL). The MIC (Escherichia coli SBS 363) was 1.56 µM (≈ 2.34 µg/mL), the MIC [15] was at least 66.5 µM and the MIC [16] was 16 µM (≈ 24 µg/mL). It also gave an MIC [17] of at least 64 µM, an MIC (Micrococcus luteus A270) of 0.78 µM (≈ 1.17 µg/mL) and an MIC (Proteus mirabilis) of at least 133 µM. For the same compound, the MIC [18] was at least 133 µM, the MIC [19] was 66.5 µM (≈ 99.9 µg/mL) and the MIC [20] was 4 µM (≈ 6.01 µg/mL). For the same compound, the MIC [21] was 1 µM (≈ 1.5 µg/mL), the MIC [22] was 2 µM (≈ 3.01 µg/mL) and the MIC [23] was at least 50 µM. The MIC [24] was over 128 µM, the MIC [25] was 66.5 µM (≈ 99.9 µg/mL) and the MIC [26] was 2 µM (≈ 3.01 µg/mL). The MIC [27] was 0.36 µM (≈ 0.541 µg/mL), the MIC [28] was 8 µM (≈ 12 µg/mL) and the MIC [29] was 0.665 µM (≈ 0.999 µg/mL). The MIC [30] was 2 µM (≈ 3.01 µg/mL), the MIC [31] was 3.32 µM (≈ 5 µg/mL) and the MIC [32] was 1 µM (≈ 1.5 µg/mL). For the same compound, the MIC [33] was 1 µM (≈ 1.5 µg/mL), the MIC [34] was 2 µM (≈ 3.01 µg/mL) and the MIC [35] was 8 µM (≈ 12 µg/mL). It also gave an MIC [36] of 2 µM (≈ 3.01 µg/mL) and an MIC [37] of 0.665 µM (≈ 0.999 µg/mL).
